Values of other authors, collected in patent US11499155B2, “Dynamin 2 inhibitor for the treatment of centronuclear myopathies” (UNIVERSITE DE STRASBOURG, priority 2013, dated 2022).
pIC50: −log10 of the molar value.

Columns and labels:
[1] = target: receptor-mediated and synaptic vesicle endocytosis; details: read-out: IC50 for inhibition of receptor-mediated and synaptic vesicle endocytosis
mitochondrial division = details: read-out: IC50 (mitochondrial division inhibitor)

SMILES	pIC50 (Dynamin)	also measured
CCCCCCCCCCCCCCCCCC[N+](C)(C)CCN1C(=O)C2C3CCC(O3)C2C1=O (stereo not shown) [RTIL-13, 4-(N,N-Dimethyl-N-octadecyl-N-ethyl)-4-aza-10-oxatricyclo-[5.2.1]decane-3,5-dione bromide]	5.64	
CCCCCCCCCCCCCC[N+](C)(C)C [MiTMAB, Tetradecyltrimethylammonium bromide]		pIC50 [1]: 5.66
O=C(NN=Cc1cc(O)c(O)cc1O)c1cc2ccccc2cc1O [Hydroxy-Dynasore, 3-Hydroxy-N′-[(2,4,5-trihydroxyphenyl)methylidene]naphthalene-2-carbohydrazide]	5.60	
COc1cc(-n2c(S)nc3ccccc3c2=O)c(Cl)cc1Cl [M-divi 1, 3-(2,4-Dichloro-5-methoxyphenyl)-2-sulfanylquinazolin-4(3H)-one]		pIC50 (mitochondrial division): 5.00
